Laboratory results published in publication PMC8151276, “An Integrated Approach toward NanoBRET Tracers for Analysis of GPCR Ligand Engagement” (Molecules, 2021).

Target: T1, CHRM2 (Homo sapiens, UniProt P08172)
T1 construct: purchased Promega (in-house HiBiT-GPCR construct library, NanoBRET)
T1 sequence (P08172 1-466): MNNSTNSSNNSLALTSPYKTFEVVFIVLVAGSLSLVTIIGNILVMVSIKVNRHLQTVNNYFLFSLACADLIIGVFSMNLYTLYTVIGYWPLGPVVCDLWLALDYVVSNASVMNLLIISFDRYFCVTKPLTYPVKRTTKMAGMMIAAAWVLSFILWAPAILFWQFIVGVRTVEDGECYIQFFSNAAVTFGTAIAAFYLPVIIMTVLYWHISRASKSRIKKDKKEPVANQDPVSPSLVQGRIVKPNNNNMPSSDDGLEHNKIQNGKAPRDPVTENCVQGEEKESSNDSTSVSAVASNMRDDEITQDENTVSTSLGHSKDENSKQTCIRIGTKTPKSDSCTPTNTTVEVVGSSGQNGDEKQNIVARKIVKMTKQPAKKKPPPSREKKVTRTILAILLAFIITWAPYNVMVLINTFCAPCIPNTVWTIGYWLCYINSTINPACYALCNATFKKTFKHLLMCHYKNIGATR
Assay: NanoBRET screen HiBiT-CHRM2 in HEK293
Assay type: binding
Method: Each tracer candidate was screened across the entire library of HiBiT-GPCR constructs using NanoBRET as the detection modality. As depicted in Figure 4A, the specificity of interactions was evaluated through decrease in BRET due to competitive displacement of a bound tracer by excess parental compound. Each tracer was analyzed for binding to each HiBiT-GPCR fusion in the absence and in the presence of competing parental compound. Briefly, HEK293 cells were transfected with HiBiT-GPCR constructs diluted into promoterless DNA to reduce expression and maximize translocation to the cell surface. Each tracer candidate was then screened at concentrations of 1 μM and 0.1 μM across cells expressing these fusions. Cells were treated for 1.5 h with tracer either alone or in the presence of 20 μM competing parental compound (i.e., control). BRET was measured upon addition of purified LgBiT and subsequent complementation with HiBiT genetically fused to a GPCR. The specificity of interactions was assessed through a decrease in BRET signal due to competitive displacement of the bound tracer. To further gauge the robustness of these interactions, the fold response over the control (i.e., BRETtracer/BRETcontrol) was calculated. We chose a 1.5-fold response, which translates to ≥7-fold signal over noise as the minimal threshold required to score an interaction as positive.
HiBiT-GPCR DNA constructs were diluted in 10 mM Tris pH 8 to a final concentration of 0.01 μg/μL, arrayed in 96-well plates and stored at −20 °C. For transfection, HEK293 cells were suspended in Opti-MEM (without phenol red) supplemented with 2% fetal bovine serum (Seradigm) and 100 units/mL penicillin–streptomycin (Gibco) at a final concentration of 220,000 cells/mL and dispensed into white 96-well plates at 90 μL/well. Subsequent transfections and screens were carried using an Agilent Bravo Automated Liquid Handling Platform. First, the 96-well HiBiT DNA arrays were diluted 25-fold in Opti-MEM (without serum or phenol red) to a final concentration of 0.0004 μg/μL and 20 μL of the diluted DNAs were transferred into new 96-well plates. Next, promoterless carrier DNA (1 μg/μL) was diluted 25-fold (0.04 μg/μL) and then dispensed into the diluted arrays at 20 μL/well. Following brief mixing, Viafect transfection reagent (Promega) diluted 16-fold into Opti-MEM was dispensed into the plates at 40 μL/well. After mixing by pipetting, plates were incubated for 10 min on the pipetting station deck. The DNA-transfection reagent complexes were then added to plates containing cells. To facilitate the screen, 10 μL of DNA-transfection reagent complexes were added in duplicates to the top 4 and bottom 4 rows, resulting in two identical 48-well arrays per plate. Plates with transfected cells were incubated for 18–20 h at 37 °C/5% CO2. A screen of each tracer across the entire library using two different concentrations requires duplicate plates of transfected cells. Depending on the number of tracers being screened, transfections can be scaled up using the same ratios. The next day, for each tracer, four 20× screening solutions in tracer dilution buffer (Promega) were prepared: two duplicates at final concentration of 20 μM and two duplicates at a final concentration of 2 μM. […] The four resulting solutions were diluted 4-fold in Opti-MEM without serum or phenol red to generate 5× solutions (5 µM and 0.5 µM tracer +/− 100 μM competing compound). To screen the library, a BioTek MultiFlo FX liquid dispenser was used to dispense 22.5 µL of tracer solution to the top 4 rows and 22.5 µL tracer + competing compound solution to the 4 bottom rows. Plates were briefly mixed on an orbital shaker and incubated for 1.5 h at room temperature. […] Plates were briefly mixed on an orbital shaker and incubated for 15 min to allow complementation.

| Compound | NanoBRET Fold Response (CHRM2, tracer 0.1μM) | NanoBRET Fold Response (CHRM2, tracer 1μM) | further results |
| --- | --- | --- | --- |
| O=C(CCc1ccc2n1[B-](F)(F)[N+]1=C(c3ccc[nH]3)C=CC1=C2)NCc1ccc(C(=O)NCCOCCC(=O)N[C@@H]2CC[C@@]3(O)[C@H]4Cc5ccc(O)c6c5[C@@]3(CCN4CC3CC3)[C@H]2O6)cc1 [Naltrexone-3-NB590] | 0.57 | 1.32 | – |
| CN1CCN(C2=Nc3cc(Cl)ccc3N(CC(=O)NCCOCCOCCOCCOCCNC(=O)CCc3ccc4n3[B-](F)(F)[N+]3=C(c5ccc[nH]5)C=CC3=C4)c3ccccc32)CC1 [Clozapine-c-2-NB590] | – | – | NanoBRET Fold Response (CHRM2, 0.1μM tracer): 0.99; NanoBRET Fold Response (CHRM2, 1μM tracer): 0.87 |
| O=C(CCOCCOCCOCCOCCNC(=O)CCc1ccc2n1[B-](F)(F)[N+]1=C(c3ccc[nH]3)C=CC1=C2)NCCCN1CCN(C2=Nc3cc(Cl)ccc3Nc3ccccc32)CC1 [Clozapine-a-2-NB590] | – | – | NanoBRET Fold Response (CHRM2, 0.1μM tracer): 1.50; NanoBRET Fold Response (CHRM2, 1μM tracer): 1.49 |
| CCOC(=O)c1cc(C#N)c(N2CCC(C(=O)NS(=O)(=O)Cc3ccccc3/C=C/C(=O)NCCNC(=O)CCc3ccc4n3[B-](F)(F)[N+]3=C(c5ccc[nH]5)C=CC3=C4)CC2)nc1C [AZD1283-1-NB590] | – | – | NanoBRET Fold Response (CHRM2, 0.1μM): 1.05; NanoBRET Fold Response (CHRM2, 1μM): 0.96 |
| COc1ccc2[nH]c(-c3ccc(CNC(=O)CCOCCOCCOCCOCCNC(=O)CCc4ccc5n4[B-](F)(F)[N+]4=C(c6ccc[nH]6)C=CC4=C5)cc3)c(CCNC(C)=O)c2n1 [AzomelatoninICO9-2-NB590] | – | – | NanoBRET Fold Response (0.1μM tracer): 1.08; NanoBRET Fold Response (1μM tracer): 0.86 |
| CCCn1c(=O)c2[nH]c(-c3ccc(OCC(=O)NCCNC(=O)CCOCCNC(=O)c4ccc(CNC(=O)CCc5ccc6n5[B-](F)(F)[N+]5=C(c7ccc[nH]7)C=CC5=C6)cc4)cc3)nc2n(CCC)c1=O [XAC-3-NB590] | 1.28 | 2.12 | – |
| COc1ccccc1N1CCN(CCCCN2C(=O)c3ccc(CNC(=O)CCOCCNC(=O)c4ccc(CNC(=O)CCc5ccc6n5[B-](F)(F)[N+]5=C(c7ccc[nH]7)C=CC5=C6)cc4)cc3C2=O)CC1 [NAN-190-3-NB590] | 1.14 | 0.95 | – |
| CN(CCC=C1c2ccccc2CCc2ccccc21)C(=O)CCOCCOCCOCCOCCNC(=O)CCc1ccc2n1[B-](F)(F)[N+]1=C(c3ccc[nH]3)C=CC1=C2 [Amitriptyline-e-2-NB590] | – | – | NanoBRET Fold Response (tracer at 1μM): 1.05 |
| O=C(CCc1ccc2n1[B-](F)(F)[N+]1=C(c3ccc[nH]3)C=CC1=C2)NCc1ccc(C(=O)NCCOCCOCCNCC(O)COc2cccc3ccccc23)cc1 (stereo not drawn) [Propranolol-3-NB590] | – | – | NanoBRET Fold Response (CHRM2, 0.1μM): 1.14; NanoBRET Fold Response (CHRM2, 1μM): 1.00 |
| COc1ccc2c(n1)c(CCNC(C)=O)cn2CCNC(=O)CCc1ccc2n1[B-](F)(F)[N+]1=C(c3ccc[nH]3)C=CC1=C2 [Azamelatonin-1-NB590] | – | – | NanoBRET Fold Response (0.1μM tracer): 0.80; NanoBRET Fold Response (1μM tracer): 1.35 |
| O=C(CCOCCOCCOCCOCCNC(=O)CCc1ccc2n1[B-](F)(F)[N+]1=C(c3ccc[nH]3)C=CC1=C2)NCCCN1CCN(C2=Nc3ccccc3Oc3ccc(Cl)cc32)CC1 [Loxapine-a-2-NB590] | 1.07 | 1.04 | – |
| COc1ccccc1N1CCN(CCCCN2C(=O)c3ccc(CNC(=O)CCOCCOCCOCCOCCNC(=O)CCc4ccc5n4[B-](F)(F)[N+]4=C(c6ccc[nH]6)C=CC4=C5)cc3C2=O)CC1 [NAN-190-2-NB590] | 1.13 | – | – |
| CC(C)N(CC[C@H](c1ccccc1)c1cc(CCNC(=O)c2ccc(CNC(=O)CCc3ccc4n3[B-](F)(F)[N+]3=C(c5ccc[nH]5)C=CC3=C4)cc2)ccc1O)C(C)C [Tolterodine-BZ-NB590] | 3.84 | 2.14 | – |
| O=C(CCc1ccc2n1[B-](F)(F)[N+]1=C(c3ccc[nH]3)C=CC1=C2)NCCOCCOCCNC(=O)OCCOCCN1CCN(C2=Nc3ccccc3Sc3ccccc32)CC1 [Quetiapine-a-2-NB590] | 1.56 | 1.75 | – |
| CN1CCN(C2=Nc3cc(Cl)ccc3Nc3ccc(CNC(=O)CCOCCOCCOCCOCCNC(=O)CCc4ccc5n4[B-](F)(F)[N+]4=C(c6ccc[nH]6)C=CC4=C5)cc32)CC1 [Clozapine-b-2-NB590] | – | – | NanoBRET Fold Response (CHRM2, 0.1μM tracer): 1.48; NanoBRET Fold Response (CHRM2, 1μM tracer): 1.99 |
| CC(C)N(CC[C@H](c1ccccc1)c1cc(CCNC(=O)CCOCCOCCOCCOCCNC(=O)CCc2ccc3n2[B-](F)(F)[N+]2=C(c4ccc[nH]4)C=CC2=C3)ccc1O)C(C)C [Tolterodine-2-NB590] | 2.98 | 1.51 | – |
| CN(C)CCC=C1c2ccccc2CCc2ccc(C(=O)NCCNC(=O)CCOCCOCCOCCOCCNC(=O)CCc3ccc4n3[B-](F)(F)[N+]3=C(c5ccc[nH]5)C=CC3=C4)cc21 [Amitriptyline-a-2-NB590] | – | – | NanoBRET Fold Response (tracer at 0.1μM): 1.10; NanoBRET Fold Response (tracer at 1μM): 0.98 |
| Cc1cc2c(s1)Nc1ccccc1N=C2N1CCN(CCCNC(=O)CCOCCOCCOCCOCCNC(=O)CCc2ccc3n2[B-](F)(F)[N+]2=C(c4ccc[nH]4)C=CC2=C3)CC1 [Olanzapine-a-2-NB590] | – | 1.30 | – |
| N#CN=C(NCCCOc1cccc(CN2CCCCC2)c1)NCCNC(=O)CCOCCOCCOCCOCCNC(=O)CCc1ccc2n1[B-](F)(F)[N+]1=C(c3ccc[nH]3)C=CC1=C2 [Aminopotentidine-2-NB590] | 1.66 | 1.68 | – |
| Cc1nc2n(c(=O)c1CCN1CCC(c3noc4cc(F)ccc34)CC1)CCCC2OC(=O)NCCOCCOCCOCCOCCNC(=O)CCc1ccc2n1[B-](F)(F)[N+]1=C(c3ccc[nH]3)C=CC1=C2 (stereo not drawn) [Risperidone-2-NB590] | 1.09 | 1.26 | – |
| CN(C)CCC=C1c2ccccc2CCc2ccc(C(=O)NCCNC(=O)CCOCCOCCOCCOCCNC(=O)CCc3ccc4n3[B-](F)(F)[N+]3=C(c5ccc[nH]5)C=CC3=C4)cc21 [Amitriptyline-b-2-NB590] | – | – | NanoBRET Fold Response (tracer at 0.1μM, listed as amitriptyline-b-2-NB590): 2.20; NanoBRET Fold Response (tracer at 1μM, listed as amitriptyline-b-2-NB590): 1.55 |
